Data taken from patent US20080125427A1, “Novel Inhibitors of Rho-Kinases” (SMITHKLINE BEECHAM CORPORATION, priority 2004, published 2008).

Biological target: T1, human recombinant ROCK1 kinase domain (amino acid 2-543) (Homo sapiens, UniProt Q13464)
T1 construct: human recombinant ROCK1 kinase domain (amino acid 2-543); His-tag; made in house; host or cells: Sf9 insect cells
Experiment: ROCK Kinase Assay (SPA, P33 incorporation into peptide substrate)
Type: biochemical
Conditions: 1 nM hROCK1, 1 uM ATP; eleven point dilution range, 50 uM to 0.8 nM or 10 uM to 0.8 nM (Example 98: 10 uM to 0.8 nM)
Description: ROCK inhibitor activity was determined using human recombinant ROCK1 kinase domain (amino acid 2-543) expressed in Sf9 cells (see WO9967283). The enzyme was purified using His-tag NTA column and Source15 HPLC chromatography. The assay of Rock-1 activity involved incubation with peptide substrate and ATP^33, the subsequent incorporation of P^33 into the peptide was quantified by Scintillation Proximity Assay (SPA—Amersham Pharmacia).
For IC50 determination, test compounds were typically dissolved at 10 mM in 100% DMSO, with subsequent serial dilution in 100% DMSO. Compounds were typically assayed over an eleven point dilution range with a concentration in the assay of 50 uM to 0.8 nM, in 3-fold dilutions. IC50 values were calculated by bespoke curve fitting software and then converted to pIC50. In some cases, compounds were assayed over an eleven point dilution range with a concentration in the assay of 10 uM to 0.8 nM, in 3-fold dilutions. […]
Assays were performed in opaque, white walled, 384 well plates, in a total assay volume of 20 ul. […] P^33 incorporation was quantified by scintillation counting in a Packard TopCount. When the reaction was terminated by addition of a 10 ul solution, P33 incorporation was quantified by luminescence detection using a Perkin-Elmer Viewlux ultraHTS microplate imager.

T1 sequence (Q13464 2-543): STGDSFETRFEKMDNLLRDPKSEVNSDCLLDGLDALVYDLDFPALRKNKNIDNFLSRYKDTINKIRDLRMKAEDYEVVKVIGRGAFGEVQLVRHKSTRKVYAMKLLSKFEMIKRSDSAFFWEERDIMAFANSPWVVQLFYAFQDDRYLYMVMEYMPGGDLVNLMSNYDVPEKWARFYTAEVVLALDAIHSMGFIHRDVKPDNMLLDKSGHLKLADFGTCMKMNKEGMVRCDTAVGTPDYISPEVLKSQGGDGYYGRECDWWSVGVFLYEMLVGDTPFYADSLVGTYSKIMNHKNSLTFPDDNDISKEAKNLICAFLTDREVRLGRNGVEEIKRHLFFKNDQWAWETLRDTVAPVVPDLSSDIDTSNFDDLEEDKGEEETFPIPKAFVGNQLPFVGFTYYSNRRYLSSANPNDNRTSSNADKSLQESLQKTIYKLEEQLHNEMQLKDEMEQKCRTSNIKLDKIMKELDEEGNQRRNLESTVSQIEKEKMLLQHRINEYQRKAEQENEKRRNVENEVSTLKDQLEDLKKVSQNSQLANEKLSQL

activity in the ROCK kinase assay: not active
SMILES: CC1=C(C(=O)Nc2cc3cn[nH]c3cc2F)C(c2ccc(Cl)cc2F)N=C(c2ccnc(Cl)c2)N1C (stereo not shown) [Example 98, 4-(4-chloro-2-fluorophenyl)-2-(2-chloro-4-pyridinyl)-N-(6-fluoro-1H-indazol-5-yl)-1,6-dimethyl-1,4-dihydro-5-pyrimidinecarboxamide]
